According to ChEMBL document CHEMBL1287736, “Design of a novel class of biphenyl CETP inhibitors” (Bioorg Med Chem Lett, 2010):
pIC50: −log10 of the molar value.

How the values were obtained:
[1] = target: T1, Cholesteryl ester transfer protein (Homo sapiens, UniProt P11597); assay: Inhibition of CETP-mediated neutral lipid transfer by fluorometric analysis
T1 sequence (P11597 whole entry): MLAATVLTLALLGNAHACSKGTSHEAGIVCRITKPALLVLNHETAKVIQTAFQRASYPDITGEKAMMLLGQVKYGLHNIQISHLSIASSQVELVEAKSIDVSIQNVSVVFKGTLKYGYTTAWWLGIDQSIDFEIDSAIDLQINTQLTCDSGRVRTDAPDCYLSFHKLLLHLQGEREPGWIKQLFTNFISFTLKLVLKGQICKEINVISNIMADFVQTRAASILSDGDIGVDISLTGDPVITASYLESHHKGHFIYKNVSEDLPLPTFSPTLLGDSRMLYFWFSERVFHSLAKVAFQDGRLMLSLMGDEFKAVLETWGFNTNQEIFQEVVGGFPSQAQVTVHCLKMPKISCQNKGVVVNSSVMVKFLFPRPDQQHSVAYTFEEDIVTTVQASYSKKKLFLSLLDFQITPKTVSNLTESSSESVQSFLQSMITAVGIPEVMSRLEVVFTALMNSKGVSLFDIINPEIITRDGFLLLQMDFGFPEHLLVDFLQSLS

Mus musculus [2] = assay: Cardioprotective activity in po dosed transgenic B6 mouse expressing cynomolgus monkey CETP assessed as increase in HDL-cholesterol level administered BID measured after 24 hrs of first dose; format: functional, organism-based
Mus musculus [3] = assay: Cardioprotective activity in transgenic B6 mouse expressing cynomolgus monkey CETP assessed as increase in HDL-cholesterol level at 3 mg/kg, po BID measured after 24 hrs of first dose; format: functional
Mus musculus [4] = assay: Cardioprotective activity in transgenic B6 mouse expressing cynomolgus monkey CETP assessed as increase in HDL-cholesterol level at 10 mg/kg, po BID measured after 24 hrs of first dose; format: functional
Mus musculus [5] = assay: Cardioprotective activity in transgenic B6 mouse expressing cynomolgus monkey CETP assessed as increase in HDL-cholesterol level at 1 mg/kg, po BID measured after 24 hrs of first dose; format: functional
Mus musculus [6] = assay: Cardioprotective activity in transgenic B6 mouse expressing cynomolgus monkey CETP assessed as increase in HDL-cholesterol level at 30 mg/kg, po BID measured after 24 hrs of first dose; format: functional
Mus musculus [7] = assay: Cardioprotective activity in transgenic B6 mouse expressing cynomolgus monkey CETP assessed as increase in HDL-cholesterol level at 100 mg/kg, po BID measured after 24 hrs of first dose; format: functional

Structure (SMILES) | pIC50 [1] | also measured
COC(=O)N(Cc1cc(C(F)(F)F)cc(C(F)(F)F)c1)Cc1cc(F)ccc1-c1cc(C(C)C)ccc1OC | 5.76 | 
COC(=O)N(Cc1cc(C(F)(F)F)cc(C(F)(F)F)c1)Cc1cc(C(F)(F)F)ccc1-c1cc(C(C)(C)C)ccc1OC | 5.59 | 
CCOc1ccc(C)cc1-c1ccc(C(F)(F)F)cc1CN(Cc1cc(C(F)(F)F)cc(C(F)(F)F)c1)C(=O)OC | 5.35 | 
COC(=O)N(Cc1cc(C(F)(F)F)cc(C(F)(F)F)c1)Cc1cc(Cl)ccc1-c1cc(C(C)C)ccc1OC | 5.84 | 
CCCc1ccc(OC)c(-c2ccc(C(F)(F)F)cc2CN(Cc2cc(C(F)(F)F)cc(C(F)(F)F)c2)C(=O)OC)c1 | 6.12 | 
COC(=O)N(Cc1cc(C(F)(F)F)cc(C(F)(F)F)c1)Cc1cc(C(F)(F)F)ccc1-c1ccccc1OC | 5.80 | 
COC(=O)N(Cc1cc(C(F)(F)F)cc(C(F)(F)F)c1)Cc1cc(OC)ccc1-c1cc(C(C)C)ccc1OC | 6.16 | 
COC(=O)N(Cc1cc(C(F)(F)F)cc(C(F)(F)F)c1)Cc1ccccc1-c1cc(C(C)C)ccc1OC | 5.42 | 
COC(=O)N(Cc1cc(C(F)(F)F)cc(C(F)(F)F)c1)Cc1cc(N)ccc1-c1cc(C(C)C)ccc1OC | 5.33 | 
COC(=O)N(Cc1cc(C(F)(F)F)cc(C(F)(F)F)c1)Cc1cc(C(C)(C)C)ccc1-c1cc(C(C)C)ccc1OC | 5.02 | 

The next molecules have a higher pIC50 [1] than those just listed; values first:

pIC50 [1] | Structure (SMILES) | also measured
6.93 | COC(=O)N(Cc1cc(C(F)(F)F)cc(C(F)(F)F)c1)Cc1cc(C(F)(F)F)ccc1-c1cc(C(C)C)c(F)cc1OC | 
6.87 | COC(=O)N(Cc1cc(C(F)(F)F)cc(C(F)(F)F)c1)Cc1cc([N+](=O)[O-])ccc1-c1cc(C(C)C)ccc1OC | 
6.44 | COC(=O)N(Cc1cc(C(F)(F)F)cc(C(F)(F)F)c1)Cc1cc(I)ccc1-c1cc(C(C)C)ccc1OC | 
6.65 | COC(=O)N(Cc1cc(C(F)(F)F)cc(C(F)(F)F)c1)Cc1cc(C#N)ccc1-c1cc(C(C)C)ccc1OC | 
6.35 | COC(=O)N(Cc1cc(C(F)(F)F)cc(C(F)(F)F)c1)Cc1cc(C(F)(F)F)ccc1-c1cc(OC)ccc1OC | 
6.97 | COC(=O)N(Cc1cc(C(F)(F)F)cc(C(F)(F)F)c1)Cc1cc(C(F)(F)F)ccc1-c1cc(C(C)C)ccc1OC | Activity (Mus musculus [2]): Dose-dependent effect; Activity (Mus musculus [3]): 43%; Activity (Mus musculus [4]): 54%; Activity (Mus musculus [5]): 37%; Activity (Mus musculus [6]): 86%
6.33 | COC(=O)N(Cc1cc(C(F)(F)F)cc(C(F)(F)F)c1)Cc1cc(C(F)(F)F)ccc1-c1cc(C)ccc1OC | Activity (Mus musculus [7]): 40%
6.68 | CCc1ccc(OC)c(-c2ccc(C(F)(F)F)cc2CN(Cc2cc(C(F)(F)F)cc(C(F)(F)F)c2)C(=O)OC)c1 | 
